Assay results taken from patent US20250019385A1, “SPIROCYCLIC ANNULATED 2-AMINO-3-CYANO THIOPHENES AND DERIVATIVES FOR THE TREATMENT OF CANCER” (Boehringer Ingelheim International GmbH, priority 2023, published 2025).

Assays:
[1] = molecular target: KRAS (G12D)::CRAF protein::protein interaction (Homo sapiens (Human), UniProt P01116, G12D); assay: KRAS TR-FRET assay (KRAS G12D::CRAF, GTP); assay type: binding
Description: (§1) This assay measures the inhibitory effect of compounds on KRAS::CRAF protein::protein interactions in the presence of GTP using Time-resolved fluorescence energy transfer (TR-FRET).
(§2) The following wildtype or mutant alleles of KRAS and CRAF protein have been used at the given concentrations:
KRAS (G12D) 1-169, N-terminal 6His-tag, C-terminal avi-tag (Xtal BioStructures, Inc.); final assay concentration 15 nM,
(§3) CRAF Ras binding domain, GST-tag, TEV cleavage site (Boehringer Ingelheim in house protein prep); final assay concentration 15 nM.
(§4) Test compounds dissolved in DMSO were dispensed onto assay plates (Proxiplate 384 PLUS, white, PerkinElmer; 6008289) using an Access Labcyte Workstation with the Labcyte Echo 55x. For the chosen highest assay concentration of 100 μM, 150 nl of compound solution was transferred from a 10 mM DMSO compound stock solution. A series of eleven fivefold dilutions per compound was transferred to the assay plate, compound dilutions were tested in duplicates. DMSO was added as backfill to a total volume of 150 nl.
(§5) The assay runs on a fully automated robotic system. To 150 nl of compound dilution 15 μl of a mix including the respective KRAS allele, CRAF (e.g. KRAS (G12D)::CRAF; final assay concentrations see above), GTP nucleotide (Sigma G8877; final assay concentration 10 μM), Lance Eu—W1024 labeled Streptavidin (PerkinElmer, Cat No AD0063; final assay concentration 1.5 nM) and Anti-GST surelight APC (PerkinElmer, Cat No AD0059G; final assay concentration 30 nM) in assay buffer (1×PBS, 0.1% BSA, 0.05% Tween 20) are added into columns 1-23 and 15 μL of the solution without the respective KRAS allele were added to row 24.
(§6) Plates are kept at room temperature in a darkened incubator. After 60 minutes incubation time the signal is measured in a PerkinElmer Envision HTS Multilabel Reader using the TR-FRET LANCE Ultra specs from PerkinElmer.
(§7) Each plate contains 16 wells of a negative control (diluted DMSO instead of test compound; w respective KRAS allele; column 23) and 16 wells of a positive control (diluted DMSO instead of test compound; w/o respective KRAS allele; column 24).
(§8) IC50 values were calculated and analyzed with Boehringer Ingelheim's MEGALAB 50 application using a 4 parametric logistic model.
(§9) Tables of example compounds disclosed herein contain IC50 values determined using the above assays (see Table 44).

[2] = molecular target: KRAS (G12V)::CRAF protein::protein interaction (Homo sapiens (Human), UniProt P01116, C118S/G12V); assay: KRAS TR-FRET assay (KRAS G12V::CRAF, GTP); assay type: binding
KRAS (G12V)::CRAF protein::protein interaction, sequence (P01116 other isoform, or with tags, fused parts or gaps G12V/C118S): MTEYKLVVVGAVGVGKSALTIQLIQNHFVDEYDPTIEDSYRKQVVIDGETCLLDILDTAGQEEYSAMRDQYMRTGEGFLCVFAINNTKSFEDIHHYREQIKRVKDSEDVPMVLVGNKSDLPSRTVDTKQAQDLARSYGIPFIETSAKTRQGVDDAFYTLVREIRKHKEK
Description: as §1, §2
KRAS (G12V) 1-169, C118S, N-terminal 6His-tag, C-terminal avi-tag (Boehringer Ingelheim in house protein prep); final assay concentration 15 nM.
as §3, §4, §5, §6, §7, §8, §9

[3] = molecular target: KRAS (WT)::CRAF protein::protein interaction (Homo sapiens (Human), UniProt P01116); assay: KRAS TR-FRET assay (KRAS WT::CRAF, GTP); assay type: binding
KRAS (WT)::CRAF protein::protein interaction, sequence (P01116 other isoform, or with tags, fused parts or gaps): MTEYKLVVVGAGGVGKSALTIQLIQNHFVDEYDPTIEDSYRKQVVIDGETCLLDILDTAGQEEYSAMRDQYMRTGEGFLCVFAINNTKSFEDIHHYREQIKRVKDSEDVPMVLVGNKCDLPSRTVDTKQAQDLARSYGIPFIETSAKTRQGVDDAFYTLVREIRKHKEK
Description: as §1, §2
KRAS (WT) 1-169, N-terminal 6His-tag, C-terminal avi-tag (Boehringer Ingelheim in house protein prep); final assay concentration 15 nM.
as §3, §4, §5, §6, §7, §8, §9

[4] = Caco-2 assay (permeability and efflux ratio); assay type: in vitro ADME; conditions: human; for Papp A→B at 90 min, 10 μM: Caco-2 apical to basolateral permeability, pH 7.4, read-out: Caco PappAB; for efflux ratio at 90 min, 10 μM: pH 7.4, Caco-2 efflux ratio PappBA/PappAB, read-out: Caco ER
Description: The assay provides information on the potential of a compound to pass the cell membrane, on the extent of oral absorption as well as on whether the compound is actively transported by uptake and/or efflux transporters. Permeability measurements across polarized, confluent Caco-2 cell monolayers grown on permeable filter supports (Corning, catalog #3391) are used. 10 μM test compound solution in assay buffer (128.13 mM NaCl, 5.36 mM KCl, 1 mM MgSO4, 1.8 mM CaCl2), 4.17 mM NaHCO3, 1.19 mM Na2HPO4, 0.41 mM NaH2PO4, 15 mM 2-[4-(2-hydroxyethyl)piperazin-1-yl]ethanesulfonic acid (HEPES), 20 mM glucose, pH 7.4) was added to the donor compartment of the cell chamber containing a monolayer of Caco-2 cells in between the donor and the receiver compartment. The receiver and donor compartments contain 0.25% bovine serum albumine (BSA) in assay buffer. Passive diffusion and/or active transport of compounds across the monolayer is measured in both apical to basolateral (a-b) and basolateral to apical (b-a) direction. a-b permeability (PappAB) represents drug absorption from the intestine into the blood and b-a permeability (PappBA) drug secretion from the blood back into the intestine via both passive permeability as well as active transport mechanisms mediated by efflux and uptake transporters that are expressed on the Caco-2 cells. After a pre-incubation of 25-30 min at 37° C., at predefined time points (0, 30, 60 and 90 min), samples were taken from the receiver and donor compartment, respectively. Concentrations of test compounds in samples were measured by HPLC/MS/MS, samples from the donor compartment were diluted 1:50 (v:v) with assay buffer, samples from receiver compartment were measured without dilution.
Apparent permeabilities in a-b (PappAB) and b-a (PappBA) directions are calculated according to the formula:
[formula] • Vrec [mL]: buffer volume in receiver compartment • Cdon [μmol/mL]: concentration of test compound in donor compartment at t=0 • ΔCrec: difference between concentrations of test compound in receiver compartment at start and end of incubation time • Δt: Incubation time • Vrec·ΔCrec/Δt [μmol/min]: Amount of compound transferred to receiver compartment per time • A [cm^2]: filter surface
Caco-2 efflux ratios (ER) are calculated as the ratio of PappBA/PappAB.

KRAS (G12D)::CRAF protein::protein interaction, sequence (P01116 other isoform, or with tags, fused parts or gaps G12D): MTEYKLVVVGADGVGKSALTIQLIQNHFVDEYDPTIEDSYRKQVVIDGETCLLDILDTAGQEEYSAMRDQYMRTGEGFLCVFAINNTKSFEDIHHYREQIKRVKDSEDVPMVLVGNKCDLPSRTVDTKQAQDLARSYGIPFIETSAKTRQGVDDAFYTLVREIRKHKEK

IC50 [1] | IC50 [2] | IC50 [3] | Papp A→B at 90 min, 10 μM [4] | efflux ratio at 90 min, 10 μM [4] | Compound
– | – | – | 24 ×10⁻⁶ cm/s | 2.3 | C[C@H](Oc1nc(-c2onc3c2CCC[C@@]32CCCc3sc(N)c(C#N)c32)nc2c1CN(C1COC1)C[C@]21CCOC1)[C@@H]1CC[C@H](C)N1C [I-55]
– | – | – | 8.4 ×10⁻⁶ cm/s | 7.1 | C[C@H](Oc1nc(-c2onc3c2CCC[C@@]32CCCc3sc(N)c(C#N)c32)nc2c1CN(C1COC1)C[C@]21CCOC1)[C@@H]1CCCN1C [I-56]
– | – | – | 35 ×10⁻⁶ cm/s | 1.3 | CO[C@H]1CCN(C)[C@@H]1[C@H](C)Oc1nc(-c2onc3c2CCC[C@@]32CCCc3sc(N)c(C#N)c32)nc2c1CN(C1COC1)C[C@]21CCOC1 [I-57]
– | – | – | 27 ×10⁻⁶ cm/s | 0.9 | CO[C@@H]1C[C@@H]([C@H](C)Oc2nc(-c3noc4c3CCC[C@@]43CCCc4sc(N)c(C#N)c43)nc3c2COC[C@]32CCOC2)N(C)C1 [II-11]
– | – | – | 2.9 ×10⁻⁶ cm/s | 21.6 | C[C@H](Oc1nc(-c2noc3c2CCC[C@@]32CCCc3sc(N)c(C#N)c32)nc2c1CN(C1COC1)C[C@]21CCOC1)[C@@H]1CCCN1C [II-12]
– | – | – | 18 ×10⁻⁶ cm/s | 2.9 | CO[C@H]1CCN(C)[C@@H]1[C@H](C)Oc1nc(-c2noc3c2CCC[C@@]32CCCc3sc(N)c(C#N)c32)nc2c1CN(C1COC1)C[C@]21CCOC1 [II-13]
– | – | – | 3.2 ×10⁻⁶ cm/s | 15.3 | CO[C@@H]1C[C@@H]([C@H](C)Oc2nc(-c3noc4c3CCC[C@@]43CCCc4sc(N)c(C#N)c43)nc3c2CN(C2COC2)C[C@]32CCOC2)N(C)C1 [II-14]
– | – | – | 12 ×10⁻⁶ cm/s | 3.8 | C[C@H](Oc1nc(-c2noc3c2CCC[C@@]32SCCc3sc(N)c(C#N)c32)nc2c1COC[C@]21CCOC1)[C@@H]1CCCN1C [II-16]
– | – | – | 16 ×10⁻⁶ cm/s | 3.4 | C[C@H](Oc1nc(-c2noc3c2CCC[C@@]32CCCc3sc(N)c(C#N)c32)nc2c1CN(C1COC1)C[C@]21CCOC1)[C@@H]1CC[C@H](C)N1C [II-17]

The remaining lines, values behind:

Compound | IC50 [1] | IC50 [2] | IC50 [3] | Papp A→B at 90 min, 10 μM [4] | efflux ratio at 90 min, 10 μM [4]
CO[C@H]1C[C@@H]([C@H](C)Oc2nc(-c3onc4c3CCC[C@@]43CCCc4sc(N)c(C#N)c43)nc3c2n(C)c(=O)n3[C@@H]2CCOC2)N(C)C1 [I-2] | 400 nM | 180 nM | 422 nM | – | –
C[C@H](Oc1nc(-c2onc3c2CCC[C@@]32CCCc3sc(N)c(C#N)c32)nc2c1n(C)c(=O)n2[C@@H]1CCOC1)[C@@H]1[C@@H](F)CCN1C [I-5] | 449 nM | 266 nM | 657 nM | – | –
COCCn1c(=O)n(C)c2c(O[C@@H](C)[C@@H]3CCCN3C)nc(-c3onc4c3CCC[C@@]43CCCc4sc(N)c(C#N)c43)nc21 [I-7] | 2260 nM | 451 nM | 1150 nM | – | –
C[C@H](Oc1nc(-c2onc3c2CCC[C@@]32CCCc3sc(N)c(C#N)c32)nc2c1n(C)c(=O)n2C1CCOCC1)[C@@H]1CCCN1C [I-10] | 698 nM | 110 nM | 348 nM | – | –
C[C@H](Oc1nc(-c2onc3c2CCC[C@@]32CCCc3sc(N)c(C#N)c32)nc2c1n(C)c(=O)n2[C@H]1CCCOC1)[C@@H]1CCCN1C [I-11] | 460 nM | 315 nM | 338 nM | – | –
C[C@H](Oc1nc(-c2onc3c2CCC[C@@]32CCCc3sc(N)c(C#N)c32)nc2c1n(C)c(=O)n2C12COC(C1)C2)[C@@H]1CCCN1C [I-15] | 298 nM | 150 nM | 179 nM | – | –
C[C@H](Oc1nc(-c2onc3c2CCC[C@@]32CCCc3sc(N)c(C#N)c32)nc2c1n(C)c(=O)n2[C@@H]1CCOC1)[C@@H]1C[C@@H](F)CN1C [I-22] | 138 nM | 60 nM | 133 nM | – | –
CO[C@H]1CCN(C)[C@@H]1[C@H](C)Oc1nc(-c2onc3c2CCC[C@@]32CCCc3sc(N)c(C#N)c32)nc2c1n(C)c(=O)n2[C@@H]1CCOC1 [I-23] | 52 nM | 25 nM | 59 nM | – | –
C[C@H](Oc1nc(-c2onc3c2CCC[C@@]32CCCc3sc(N)c(C#N)c32)nc2c1n(C)c(=O)n2C1COC1)[C@@H]1CCCN1C [I-24] | 565 nM | 153 nM | 749 nM | – | –
C[C@H](Oc1nc(-c2onc3c2CCC[C@@]32CCCc3sc(N)c(C#N)c32)nc2c1n(C)c(=O)n2[C@@H]1CCOC1)[C@@H]1C[C@H](F)CN1C [I-27] | 410 nM | 196 nM | 462 nM | – | –
C[C@H](Oc1nc(-c2onc3c2CCC[C@@]32CCCc3sc(N)c(C#N)c32)nc2c1n(C)c(=O)n2[C@@H]1CCOC1)[C@@H]1C[C@@H]2C[C@@H]2N1C [I-28] | 434 nM | 241 nM | 541 nM | – | –
C[C@@H]1COC[C@H](n2c(=O)n(C)c3c(O[C@@H](C)[C@@H]4CCCN4C)nc(-c4onc5c4CCC[C@@]54CCCc5sc(N)c(C#N)c54)nc32)C1 [I-44] | – | – | – | 14 ×10⁻⁶ cm/s | 2.5
C[C@H](Oc1nc(-c2onc3c2CCC[C@@]32CCCc3sc(N)c(C#N)c32)nc2c1n(C)c(=O)n2[C@@]12COC[C@@H]1C2)[C@@H]1CC[C@H](C)N1C [I-45] | – | – | – | 43 ×10⁻⁶ cm/s | 0.6
CO[C@@H]1C[C@@H]([C@H](C)Oc2nc(-c3onc4c3CCC[C@@]43CCCc4sc(N)c(C#N)c43)nc3c2n(C)c(=O)n3[C@@]23COC[C@@H]2C3)N(C)C1 [I-46] | – | – | – | 21 ×10⁻⁶ cm/s | 1.8
CO[C@H]1CCN(C)[C@@H]1[C@H](C)Oc1nc(-c2onc3c2CCC[C@@]32CCCc3sc(N)c(C#N)c32)nc2c1n(C)c(=O)n2[C@H]1COC[C@@H](C)C1 [I-51] | – | – | – | 36 ×10⁻⁶ cm/s | 0.5
CO[C@@H]1C[C@@H]([C@H](C)Oc2nc(-c3onc4c3CCC[C@@]43CCCc4sc(N)c(C#N)c43)nc3c2n(C)c(=O)n3[C@H]2COC[C@@H](C)C2)N(C)C1 [I-52] | – | – | – | 34 ×10⁻⁶ cm/s | 0.6
C[C@H](Oc1nc(-c2noc3c2CCC[C@@]32CCCc3sc(N)c(C#N)c32)nc2c1n(C)c(=O)n2[C@H]1CO[C@@H](C)C1)[C@@H]1CCCN1C [II-5] | – | – | – | 8.7 ×10⁻⁶ cm/s | 5.9
CO[C@@H]1C[C@@H]([C@H](C)Oc2nc(-c3noc4c3CCC[C@@]43CCCc4sc(N)c(C#N)c43)nc3c2n(C)c(=O)n3[C@@]23COC[C@@H]2C3)N(C)C1 [II-6] | – | – | – | 13 ×10⁻⁶ cm/s | 4.3
